Experimental data published in publication PMC10999085, “Synthesis, anticancer evaluation, molecular docking and ADME study of novel pyrido[4ʹ,3ʹ:3,4]pyrazolo[1,5-a]pyrimidines as potential tropomyosin receptor kinase A (TrKA) inhibitors” (BMC Chemistry, 2024).
Values after ≈ are worked out from the molar mass of the structure shown. “Also recorded” adds a separate entry of the source.

Legend:
[1] = test system: HepG2 cell line; test: MTT assay, HepG2 cell line; format: cell-based, human; details: for Cytotoxicity at 5 µg/l: HepG2, 5 µg/l; for Cytotoxicity at 5 µg/l / Cytotoxicity at 10 µg/l / Cytotoxicity at 20 µg/l: MTT, 24 hr treatment, in % (unit assumed); for Cytotoxicity at 10 µg/l: HepG2, 10 µg/l; for Cytotoxicity at 20 µg/l: HepG2, 20 µg/l
Method: (§1) Determination of the inhibitory effects of compounds on cell growth was performed through the MTT assay. This colorimetric assay is based on the conversion of the yellow tetrazolium bromide (MTT) to a purple formazan derivative by mitochondrial succinate dehydrogenase in viable cells. The protocol was discussed in details in Additional file 1.
(§2) Compounds 1, 4a,b, 7a–c, 7k, l, 9a–c, 14a, 15b, 16a–c were selected to be investigated against three human cancer cell lines MCF7, HepG2 and HCT116 cell lines using MTT assay using doxorubicin as the standard drug. Each point is the mean ± SD (standard deviation) of three independent experiments performed in triplicate, using the prism software program (integrated Graphpad software, version 3).
(§3) Cell lines were used to measure the cell growth effects of the compounds using the MTT assay. This colorimetric assay is depend on the conversion of the yellow tetrazolium bromide (MTT) to a purple formazan derivative by mitochondrial succinate dehydrogenase in living cells. Cell lines were cultured in RPMI-1640 medium supplemented with 10% fetal bovine serum. The antibiotics added were 100 units/ml penicillin and 100 µg/ml streptomycin at 37 °C in a 5% CO2 incubator. Cell lines were seeded in a 96-well plates at a density of 1.0x10^4 cells/well and cultured at 37 °C for 48 h under 5% CO2. After incubation, the cells were treated with different concentrations of compounds and incubated for 24 hr. After 24 hr of drug treatment, 20 µl of MTT solution at 5 mg/ml was added to each well and incubated for 4 hr. 100 µl of dimethyl sulfoxide (DMSO) was added into each well to dissolve the purple formazan formed. The colorimetric assay was measured and recorded at absorbance of 570 nm using a plate reader (EXL 800, USA). Relative cell viability (%) was calculated as (A570 of treated sample/A570 of untreated sample) x 100 [36, 37].

[2] = target: T1, Tropomyosin receptor kinase A (TrKA) (Homo sapiens, UniProt P04629); test: Tropomyosin receptor kinase A (TrKA) inhibitory assay (Kinase-Glo MAX kit); format: biochemical; details: in vitro kinase assay, recombinant TrkA
T1 construct: purchased
Description: (§4) The TrkA assay Kit is designed to measure TrkA activity for screening and profiling applications using Kinase-Glo® MAX as a detection reagent. The TrkA Assay Kit comes in a convenient 96-well format, with enough purified recombinant TrkA enzyme, TrkA substrate, ATP and kinase assay buffer for 100 enzyme reactions. The method was discussed in details in the ESI.
as §4, with “reactions.” for “reactions. The method was discussed in details in the ESI.”
The assay protocol: all samples and controls should be tested in duplicate. Dissolve 5x Kinase Assay Buffer 1, ATP, and PTK Substrate Poly (Glu:Tyr 4:1) (10 mg/ml). 2). The master mixture (25 μl per well) was prepared by N wells x (6 μl 5x Kinase Assay Buffer 1 + 1 μl ATP (500 μM) + 1 μl PTK Substrate Poly (Glu:Tyr 4:1) (10mg/ml) + 17 μl water). Add 5 μl of Inhibitor solution of each well labeled as “Test Inhibitor”. For the “Positive Control" and “Blank”, add 5 μl of the same solution without inhibitor (Inhibitor buffer). Prepare 3 ml of 1x Kinase assay buffer 1 by mixing 600 μl of 5x Kinase assay buffer 1 with 2400 μl water 3 ml of 1x Kinase assay buffer is sufficient for 100 reactions. To the wells designated as "Blank", add 20 μl of 1x Kinase assay buffer 1and thaw TrkA enzyme on ice. Upon first thaw, briefly spin tube containing enzyme to recover full content of the tube. Calculate the amount of TrkA required for the assay and dilute enzyme to 5 ng/μl with 1x Kinase assay buffer. Store remaining undiluted enzyme in aliquots at -80°C. Then initiate reaction by adding 20 μl of diluted TrkA enzyme to the wells designated “Positive Control” and "Test Inhibitor Control". Incubate at 30°C for 45minutes and thaw Kinase-Glo Max reagent. After the 45 minute reaction, add 50 μl of Kinase-Glo Max reagent to each well. Cover plate with aluminum foil and incubate the plate at room temperature for 15 minutes. Immediately read sample in a luminometer or microtiter-plate capable of reading chemiluminescence. “Blank” value is subtracted from all readings.

[3] = test system: HCT-116 cell line; test: MTT assay, HCT-116 cell line; format: cell-based, human; details: MTT, 24 hr treatment, in % (unit assumed); for Cytotoxicity at 5 µg/l: HCT116, 5 µg/l; for Cytotoxicity at 10 µg/l: HCT116, 10 µg/l; for Cytotoxicity at 20 µg/l: HCT116, 20 µg/l
Method: as §1, §2, §3

[4] = test system: MCF7 cell line; test: MTT assay, MCF7 cell line; format: cell-based, human; details: 24 hr treatment, in % (unit assumed); for Cytotoxicity at 5 µg/l: MCF7, 5 µg/l; for Cytotoxicity at 10 µg/l: MCF7, 10 µg/l; for Cytotoxicity at 20 µg/l: MCF7, 20 µg/l
Method: as §1, §2, §3

[5] = test system: HepG2 cells; test: In-vitro cell cycle analysis (PI flow cytometry); format: cell-based, human
Method: HepG-2 cells are pre-cultured in 25 cm^2 cell culture flask. RPMI-1640 medium was used. Tested compounds 7b, 9c, 15b, 16a and 16c were used in the cell treatment at their IC50 by dissolving them in the required medium separately. The procedure was discussed in details in the ESI.
For cell cycle analysis, stained DNA from HepG2 cancer cells was treated with compounds 7b, 15b, 16a and 16c that induce cancer cell death by inhibiting TrKA. From the results in Table 5, it can be seen that the proportion of cells at phase in the pre-G1 of compounds 7b, 15b, 16a and 16c increased the proportion of cells at phase in the G2/M by about 4, 4, 2.5 and 3 folds, respectively.
HepG-2 cells were pre-cultured in 25 cm^2 cell culture flasks; RPMI-1640 medium was used. Tested compounds 7b, 15b, 16a and 16c were dissolved separately in the required medium and used in the cell treatment at their IC50. After overnight treatment the cells were collected and fixed gently with 70% (v/v) ethanol in PBS, incubated overnight at 4 °C, and resuspended in PBS containing 40 µg/ml propidium iodide (PI), 0.1 mg/ml RNase and 0.1% (v/v) Triton X-100 in the dark room at after 30 min at 37 °C, the cell cycle analysis was performed using a flow cytometer, equipped with an argon ion laser at a wavelength of 488 nm (Becton-Dickinson, San Josa, CA, USA) and the percentage of cells at G1, S and G2/M was also calculated.

[6] = test system: HepG2 cells; test: Annexin V-FITC apoptosis assay; format: cell-based, human
Method: HepG-2 cells were harvested and incubated with compounds 7b, 15b, 16a and 16c separately for 48 h. Then, the cells were collected and washed with PBS two successive times followed by centrifugation. After that, the cells were treated with Annexin V-FITC and propidium iodide (PI) using the apoptosis detection kit (BD Biosciences and Annexin V-FITC and PI binding were analyzed by a flow cytometer.
Early and late apoptosis was determined after treatment of HepG2 cells with compounds 7b, 15b, 16a and 16c compared with untreated control cells. The late apoptosis rate increased by about 13, 20, 4 and 3 times, respectively, showing a higher efficiency than the early apoptosis ratio 5, 2, 8 and 6 times, respectively.
As mentioned above, HepG-2 cells were collected and incubated separately with compounds 7b, 15b, 16a and 16c for 48 hr. Cells were then collected and washed twice consecutively with PBS and centrifuged. After that, the cells were treated with Annexin V-FITC and propidium iodide (PI) using an apoptosis detection kit (BD Biosciences, San Jose, CA) according to the manufacturer's instructions. The biding of Annexin V-FITC and PI was analyzed by ﬂow cytometer.

[7] = test system: Trk family; set-up: method as in earlier work; details: cited from earlier work
[8] = HepG2, compared with untreated control cells

T1 sequence (P04629 33-796): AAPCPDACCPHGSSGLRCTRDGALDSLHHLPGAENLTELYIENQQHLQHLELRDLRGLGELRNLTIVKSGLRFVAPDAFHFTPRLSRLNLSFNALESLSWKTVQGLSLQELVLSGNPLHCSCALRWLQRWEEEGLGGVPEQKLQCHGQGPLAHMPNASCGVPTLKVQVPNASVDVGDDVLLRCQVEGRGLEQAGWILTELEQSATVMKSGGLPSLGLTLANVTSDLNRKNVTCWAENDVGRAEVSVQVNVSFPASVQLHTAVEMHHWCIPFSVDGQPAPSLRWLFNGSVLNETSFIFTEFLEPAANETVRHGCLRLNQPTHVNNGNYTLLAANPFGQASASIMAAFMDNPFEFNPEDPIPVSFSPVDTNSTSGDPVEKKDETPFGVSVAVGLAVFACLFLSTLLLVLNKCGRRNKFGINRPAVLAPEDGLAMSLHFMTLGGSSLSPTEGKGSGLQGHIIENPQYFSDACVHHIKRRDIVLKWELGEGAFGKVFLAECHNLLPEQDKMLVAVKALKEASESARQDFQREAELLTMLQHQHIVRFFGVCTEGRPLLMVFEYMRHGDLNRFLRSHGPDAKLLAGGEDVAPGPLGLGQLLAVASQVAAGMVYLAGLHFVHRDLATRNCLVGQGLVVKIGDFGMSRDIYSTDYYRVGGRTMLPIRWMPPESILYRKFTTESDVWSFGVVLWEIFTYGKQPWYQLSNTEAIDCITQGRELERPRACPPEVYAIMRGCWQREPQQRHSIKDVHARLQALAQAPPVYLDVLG

Structure (SMILES)	Cytotoxicity at 5 µg/l [1]	Cytotoxicity at 10 µg/l [1]	Cytotoxicity at 20 µg/l [1]	IC50 [2] [nM]	Cytotoxicity at 5 µg/l [3]	Cytotoxicity at 10 µg/l [3]	Cytotoxicity at 20 µg/l [3]	Cytotoxicity at 5 µg/l [4]	Cytotoxicity at 10 µg/l [4]	Cytotoxicity at 20 µg/l [4]	further results
COc1ccc(N/N=C2\C(=O)NC(=O)c3c2nn2c(C)cc(C)nc32)cc1 [Compound 9c, 7-(2-(4-Methoxyphenyl)hydrazono)-2,4-dimethylpyrido[4ʹ,3ʹ:3,4]pyrazolo[1,5-a]pyri-midine-8,10(7H,9H)-dione]	42.88	50.63	86.55	434	59.74	67.13	89.80	38.17	53.72	87.32	melting point: 305 °C
COc1ccc(C=C2C(=O)NC(=O)c3c2nn2c(O)cc(C)nc32)cc1 [Compound 15b, 4-Hydroxy-7-(4-methoxybenzylidene)-2-methylpyrido[4ʹ,3ʹ:3,4]pyrazolo[1,5-a]pyrimidine-8,10(7H,9H)-dione]	49.48	75.98	78.66	288	26.10	66.87	84.20	28.52	62.92	83.62	IC50 ([1]; Homo sapiens, HepG2, MTT, read-out: IC50 (drug concentration that inhibited 50% of cell proliferation)): 4.64 ng/mL (≈ 0.0132 µM); Cell cycle comment (phase of arrest) ([5]; HepG2): arrested in the cell cycle at G2/M phase; also recorded: arrest in cell cycle at the G2/M phase; also recorded: cell growth arrest@G2/M; DNA content %G0-G1 ([5]; HepG2, compound at its IC50): 33.57%; DNA content %G2/M ([5]; HepG2, compound at its IC50): 36.72%; DNA content %Pre-G1 ([5]; HepG2, compound at its IC50): 32.51%; DNA content %S ([5]; HepG2, compound at its IC50): 29.71%; increase of the proportion of cells in the G2/M phase ([5]; HepG2, versus control): about 4 folds; Apoptosis Early ([6]; HepG2, 48 h, Annexin V-FITC/PI): 2.93%; Apoptosis Late ([6]; HepG2, 48 h, Annexin V-FITC/PI): 20.12%; Necrosis ([6]; HepG2, 48 h, Annexin V-FITC/PI): 9.46%; apoptosis-inducing effect ([6]; HepG2, as stated in the abstract): 36.72%; increase of early apoptosis ratio [6, 8]: 2 times; increase of late apoptosis rate [6, 8]: ~20 times
O=C(Nc1cnn2ccc(N3CCC[C@@H]3c3cc(F)ccc3F)nc12)N1CC[C@H](O)C1 [Larotrectinib]	–	–	–	–	–	–	–	–	–	–	IC50 [7]: 2 to 20 nM
